Results from US20230089867A1, “CYCLIC PENTAMER COMPOUNDS AS PROPROTEIN CONVERTASE SUBTILISIN/KEXIN TYPE 9 (PCSK9) INHIBITORS FOR THE TREATMENT OF METABOLIC DISORDER” (Novartis AG, priority 2018, published 2023).

Target: human PCSK9 (Homo sapiens, UniProt Q8NBP7)
Experiment: PCSK9 ligand binding TR-FRET assay (interference with binding of human PCSK9 to human LDLR)
Conditions: for Max % inhibition: PCSK9 FRET assay, efficacy (Amax), 100% = 1 uM unlabeled human PCSK9, 0% = DMSO; for IC50: TR-FRET, human PCSK9 Alexa Fluor 647 / human LDLR extracellular domain-Europium Kryptate, read-out: PCSK9 FRET Assay IC50
In short: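 Threefold compound dilutions were pre-incubated 30 min with PCSK9, after which 4 nM Europium Kryptate-tagged human LDLR ectodomain was added for a further 2 h.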

Chain of human PCSK9 (Q8NBP7 153-692): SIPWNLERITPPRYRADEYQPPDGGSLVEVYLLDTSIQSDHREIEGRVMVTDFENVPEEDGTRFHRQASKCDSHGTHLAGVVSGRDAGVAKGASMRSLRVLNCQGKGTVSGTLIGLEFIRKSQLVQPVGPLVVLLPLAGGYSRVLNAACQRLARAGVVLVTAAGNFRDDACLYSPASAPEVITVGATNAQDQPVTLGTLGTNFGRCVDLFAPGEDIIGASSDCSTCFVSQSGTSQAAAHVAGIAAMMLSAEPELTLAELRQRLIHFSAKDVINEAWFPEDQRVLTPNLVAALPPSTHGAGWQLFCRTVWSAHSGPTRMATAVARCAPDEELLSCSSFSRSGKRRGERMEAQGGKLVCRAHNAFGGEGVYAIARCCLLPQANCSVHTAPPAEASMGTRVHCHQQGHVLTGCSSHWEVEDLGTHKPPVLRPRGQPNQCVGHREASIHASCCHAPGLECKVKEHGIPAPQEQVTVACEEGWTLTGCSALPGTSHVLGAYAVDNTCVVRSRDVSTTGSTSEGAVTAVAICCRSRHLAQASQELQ
Chain of human PCSK9 (Q8NBP7 31-152 partner limits assumed): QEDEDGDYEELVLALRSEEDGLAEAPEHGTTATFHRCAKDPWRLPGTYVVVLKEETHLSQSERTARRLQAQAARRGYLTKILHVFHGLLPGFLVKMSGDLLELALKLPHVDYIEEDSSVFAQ

COC[C@@H]1NC(=O)[C@H](CC(=O)N2CCOCC2)N(Cc2ccc(Cl)cc2Oc2ccc(-c3cnc(CN(C)C)n3C)cc2)C(=O)C[C@@H](Cc2ccccc2)C(=O)N(C)[C@@H](C)CNC(=O)C[C@H](Cc2ccc(Cl)cc2)N(C)C1=O [Compound 38, (2S,5S,8S,13S,16R)-16-benzyl-1-(4-chloro-2-(4-(2-((dimethylamino)methyl)-1-methyl-1H-imidazol-5-yl)phenoxy)benzyl)-8-(4-chlorobenzyl)-5-(methoxymethyl)-7,13,14-trimethyl-2-(2-morpholino-2-oxoethyl)-1,4,7,11,14-pentaazacyclooctadecane-3,6,10,15,18-pentaone]
Max % inhibition: 101.48% | IC50: 2.1 nM

C=Cc1ncc(-c2ccc(Oc3cc(Cl)ccc3CN3C(=O)C[C@@H](Cc4ccccc4)C(=O)N(C)[C@@H](C)CNC(=O)C[C@H](Cc4ccc(Cl)cc4)N(C)C(=O)[C@H](COC)NC(=O)[C@@H]3C)cc2)n1C [Compound 282, (2S,5S,8S,13S,16R)-16-benzyl-1-(4-chloro-2-(4-(1-methyl-2-vinyl-1H-imidazol-5-yl)phenoxy)benzyl)-8-(4-chlorobenzyl)-5-(methoxymethyl)-2,7,13,14-tetramethyl-1,4,7,11,14-pentaazacyclooctadecane-3,6,10,15,18-pentaone]
Max % inhibition: 60.78% | IC50: 6.1 nM

COC[C@@H]1NC(=O)[C@H](C)N(Cc2ccc(Cl)cc2Oc2ccc(-c3cnc(CN(C)C)n3C)cc2)C(=O)C[C@@H](CC2CCCCC2)C(=O)N(C)[C@@H](C)CNC(=O)C[C@H](Cc2ccc(Cl)cc2)N(C)C1=O [Compound 183, (2S,5S,8S,13S,16R)-1-(4-chloro-2-(4-(2-((dimethylamino)methyl)-1-methyl-1H-imidazol-5-yl)phenoxy)benzyl)-8-(4-chlorobenzyl)-16-(cyclohexylmethyl)-5-(methoxymethyl)-2,7,13,14-tetramethyl-1,4,7,11,14-pentaazacyclooctadecane-3,6,10,15,18-pentaone]
Max % inhibition: 81.31% | IC50: 11.2 nM

COC[C@@H]1NC(=O)[C@H](C)N(Cc2ccc(Cl)cc2Oc2ccc(-c3cncc(C4CN(C)CCN4C)c3)cc2)C(=O)C[C@@H](Cc2ccccc2)C(=O)N(C)[C@@H](C)CNC(=O)C[C@H](Cc2ccc(Cl)cc2)N(C)C1=O (stereo partly drawn) [Compound 135, (2S,5S,8S,13S,16R)-16-benzyl-1-(4-chloro-2-(4-(5-(1,4-dimethylpiperazin-2-yl)pyridin-3-yl)phenoxy)benzyl)-8-(4-chlorobenzyl)-5-(methoxymethyl)-2,7,13,14-tetramethyl-1,4,7,11,14-pentaazacyclooctadecane-3,6,10,15,18-pentaone]
Max % inhibition: 58.33% | IC50: 9.4 nM

COC[C@@H]1NC(=O)[C@H](C)N(Cc2cccc(F)c2Oc2ccc(-c3cnc(CN(C)C)n3C)cc2)C(=O)C[C@@H](Cc2ccccc2)C(=O)N(C)[C@@H](C)CNC(=O)C[C@H](Cc2ccc(Cl)cc2)N(C)C1=O [Compound 232, (2S,5S,8S,13S,16R)-16-benzyl-8-(4-chlorobenzyl)-1-(2-(4-(2-((dimethylamino)methyl)-1-methyl-1H-imidazol-5-yl)phenoxy)-3-fluorobenzyl)-5-(methoxymethyl)-2,7,13,14-tetramethyl-1,4,7,11,14-pentaazacyclooctadecane-3,6,10,15,18-pentaone]
Max % inhibition: 96.17% | IC50: 5.7 nM

COC[C@@H]1NC(=O)[C@H](C)N(Cc2c(OCC(F)(F)F)cc(Cl)cc2Oc2ccc(-c3cnc(CN(C)C)n3C)cc2)C(=O)CCC(=O)N(C)[C@H]2CCCC[C@@H]2NC(=O)C[C@H](Cc2ccc(Cl)cc2)N(C)C1=O [Compound 39, (4S,7S,10S,16aS,20aS)-11-(4-chloro-2-(4-(2-((dimethylamino)methyl)-1-methyl-1H-imidazol-5-yl)phenoxy)-6-(2,2,2-trifluoroethoxy)benzyl)-4-(4-chlorobenzyl)-7-(methoxymethyl)-5,10,16-trimethylhexadecahydrobenzo[l][1,4,7,11,14]pentaazacyclooctadecine-2,6,9,12,15(3H)-pentaone]
Max % inhibition: 104.01% | IC50: 0.9 nM

COC[C@@H]1NC(=O)[C@H](C)N(Cc2ccc(Cl)cc2Oc2ccc(-c3ccc(C(=O)NC4CCNCC4)nc3)cc2)C(=O)C[C@@H](Cc2ccccc2)C(=O)N(C)[C@@H](C)CNC(=O)C[C@H](Cc2ccc(Cl)cc2)N(C)C1=O.O=C(O)C(F)(F)F [Compound 122, 5-(4-(2-(((2S,5S,8S,13S,16R)-16-benzyl-8-(4-chlorobenzyl)-5-(methoxymethyl)-2,7,13,14-tetramethyl-3,6,10,15,18-pentaoxo-1,4,7,11,14-pentaazacyclooctadecan-1-yl)methyl)-5-chlorophenoxy)phenyl)-N-(piperidin-4-yl)picolinamide trifluoroacetate]
Max % inhibition: 55.05% | IC50: 8.7 nM

COC[C@@H]1NC(=O)[C@H](C)N(Cc2c(F)ccc(F)c2Oc2ccc(-c3cnc(CN(C)C)n3C)cc2)C(=O)C[C@@H](Cc2ccccc2)C(=O)N(C)[C@@H](C)CNC(=O)C[C@H](Cc2ccc(Cl)cc2)N(C)C1=O [Compound 166, (2S,5S,8S,13S,16R)-16-benzyl-8-(4-chlorobenzyl)-1-(2-(4-(2-((dimethylamino)methyl)-1-methyl-1H-imidazol-5-yl)phenoxy)-3,6-difluorobenzyl)-5-(methoxymethyl)-2,7,13,14-tetramethyl-1,4,7,11,14-pentaazacyclooctadecane-3,6,10,15,18-pentaone]
Max % inhibition: 96.70% | IC50: 4.3 nM

CCC[C@@H](O)[C@@H]1CC(=O)N(Cc2ccc(Cl)cc2Oc2ccc(-c3cnc(CN(C)C)n3C)cc2)[C@@H](C)C(=O)N[C@@H](COC)C(=O)N(C)[C@@H](Cc2ccc(Cl)cc2)CC(=O)NC[C@H](C)N(C)C1=O [Compound 75, (2S,5S,8S,13S,16S)-1-(4-chloro-2-(4-(2-((dimethylamino)methyl)-1-methyl-1H-imidazol-5-yl)phenoxy)benzyl)-8-(4-chlorobenzyl)-16-((R)-1-hydroxybutyl)-5-(methoxymethyl)-2,7,13,14-tetramethyl-1,4,7,11,14-pentaazacyclooctadecane-3,6,10,15,18-pentaone]
Max % inhibition: 103.69% | IC50: 4 nM

COC[C@@H]1NC(=O)[C@H](C)N(Cc2ccc(Cl)cc2Oc2ccc(-c3cnc4n3CCN(C(C)C)C4)cc2)C(=O)C[C@@H](Cc2ccccc2)C(=O)N(C)[C@@H](C)CNC(=O)C[C@H](Cc2ccc(Cl)cc2)N(C)C1=O.O=C(O)C(F)(F)F [Compound 123, (2S,5S,8S,13S,16R)-16-benzyl-1-(4-chloro-2-(4-(7-isopropyl-5,6,7,8-tetrahydroimidazo[1,2-a]pyrazin-3-yl)phenoxy)benzyl)-8-(4-chlorobenzyl)-5-(methoxymethyl)-2,7,13,14-tetramethyl-1,4,7,11,14-pentaazacyclooctadecane-3,6,10,15,18-pentaone trifluoroacetate]
Max % inhibition: 74.19% | IC50: 3.4 nM

COC[C@@H]1NC(=O)[C@H](CC(=O)N2CC(C)(O)C2)N(Cc2ccc(Cl)cc2Oc2ccc(-c3cnc(CN(C)C)n3C)cc2)C(=O)C[C@@H](Cc2ccccc2)C(=O)N(C)C2CCCCC2NC(=O)C[C@H](Cc2ccc(Cl)cc2)N(C)C1=O (stereo in doubt) [Compound 52, (4S,7S,10S,14R,16aS,20aS)-14-benzyl-11-(4-chloro-2-(4-(2-((dimethylamino)methyl)-1-methyl-1H-imidazol-5-yl)phenoxy)benzyl)-4-(4-chlorobenzyl)-10-(2-(3-hydroxy-3-methylazetidin-1-yl)-2-oxoethyl)-7-(methoxymethyl)-5,16-dimethylhexadecahydrobenzo[l][1,4,7,11,14]pentaazacyclooctadecine-2,6,9,12,15(3H)-pentaone]
Max % inhibition: 104.32% | IC50: 1.5 nM

COC[C@@H]1NC(=O)[C@H](C)N(Cc2ccc(Cl)cc2Oc2ccc(-c3cnc(CN4CCCC4)n3C)cc2)C(=O)C[C@@H](Cc2ccc(F)c(F)c2)C(=O)N(C)[C@@H](C)CNC(=O)C[C@H](Cc2ccc(Cl)cc2)N(C)C1=O [Compound 165, (2S,5S,8S,13S,16R)-1-(4-chloro-2-(4-(1-methyl-2-(pyrrolidin-1-ylmethyl)-1H-imidazol-5-yl)phenoxy)benzyl)-8-(4-chlorobenzyl)-16-(3,4-difluorobenzyl)-5-(methoxymethyl)-2,7,13,14-tetramethyl-1,4,7,11,14-pentaazacyclooctadecane-3,6,10,15,18-pentaone]
Max % inhibition: 92.29% | IC50: 5.6 nM

COC[C@@H]1NC(=O)[C@H](COC)N(Cc2ccc(Cl)cc2Oc2ccc(-c3cnc(CN(C)C)n3C)cc2)C(=O)C[C@@H](Cc2ccccc2)C(=O)N(C)[C@@H](C)CNC(=O)C[C@H](Cc2ccc(Cl)cc2)N(C)C1=O [Compound 78, (2S,5S,8S,13S,16R)-16-benzyl-1-(4-chloro-2-(4-(2-((dimethylamino)methyl)-1-methyl-1H-imidazol-5-yl)phenoxy)benzyl)-8-(4-chlorobenzyl)-2,5-bis(methoxymethyl)-7,13,14-trimethyl-1,4,7,11,14-pentaazacyclooctadecane-3,6,10,15,18-pentaone]
Max % inhibition: 97.49% | IC50: 94.6 nM

C[C@@H]1C(=O)N[C@@H](CO)C(=O)N(C)[C@@H](Cc2ccc(Cl)cc2)CC(=O)N[C@H]2CCCC[C@@H]2N(C)C(=O)[C@H](Cc2ccccc2)CC(=O)N1Cc1ccc(Cl)cc1Oc1ccc(-c2cnc(CN(C)C)n2C)cc1 [Compound 194, (4S,7S,10R,14R,16aS,20aS)-14-benzyl-11-(4-chloro-2-(4-(2-((dimethylamino)methyl)-1-methyl-1H-imidazol-5-yl)phenoxy)benzyl)-4-(4-chlorobenzyl)-7-(hydroxymethyl)-5,10,16-trimethylhexadecahydrobenzo[l][1,4,7,11,14]pentaazacyclooctadecine-2,6,9,12,15(3H)-pentaone]
Max % inhibition: 96.92% | IC50: 5.5 nM
